This note sets out measurements from US20240124491A1, “METHODS AND COMPOUNDS FOR TREATING FRIEDREICH'S ATAXIA” (Design Therapeutics, Inc., priority 2021, published 2024).

A value given as a limit tells only on which side of the number the result lay.

For the first test, the system named is human FXN. Briefly: EC50 assay: FXN mRNA expression by qRT-PCR in GM15850 cells after 48 hrs compound treatment. Type of test: cell-based. Particulars: 48 hrs incubation, hFXN expression normalized to hGAPDH (qRT-PCR), read-out: EC50 WT (nM, 48 hr). An outline of the steps: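 FXN transcript, normalized to GAPDH by TaqMan qRT-PCR, read out after 48 hrs of compound on GM15850 cells plated at 150,000 per well. Dosing used five 3-fold steps from 150 nM final, vehicle 0.01% DMSO.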
As to `C=C(C)c1ccc(Oc2c(C)cc(F)cc2C)c(-c2cn(C)c(=O)c3[nH]c(C(=O)Nc4ccc(OCCOCCOCCOCCOCCOCCOCCOCCOCCNC(=O)CCNC(=O)c5nc(NC(=O)CCNC(=O)c6cc(NC(=O)c7nc(NC(=O)CCNC(=O)c8cc(NC(=O)c9nccn9C)cn8C)cn7C)cn6C)cn5C)cc4)cc23)c1` [Compound 197, N-(5-{[2-({2-[(2-{[26-(4-{14-[2-(4-fluoro-2,6-dimethylphenoxy)-5-(prop-1-en-2-yl)phenyl]-6-methyl-7-oxo-1H-pyrrolo[2,3-c]pyridine-2-amido}phenoxy)-3,6,9,12,15,18,21,24-octaoxahexacosan-1-yl]carbamoyl]ethyl)carbamoyl]-1-methylimidazol-4-yl]carbamoyl)ethyl]carbamoyl]-1-methylpyrrol-3-yl)-1-methyl-4-(3-{[1-methyl-4-(1-methylimidazole-2-amido)pyrrol-2-yl]formamido]propanamido)imidazole-2-carboxamide], the concentration for a half-maximal effect (EC50) lay in the range of 100 to 500 nM.

Still in this test, the particulars now being: Homo sapiens, 48 hrs incubation, hFXN expression normalized to hGAPDH (qRT-PCR), read-out: EC50 WT (nM, 48 hr).
In the case of `Cc1sc2c(c1C)C(c1ccc(Cl)cc1)=N[C@@H](CC(=O)NC(C)(C)C#CC#CCNCCOCCOCCOCCOCCOCCOCCNC(=O)CCNC(=O)c1nc(NC(=O)CCNC(=O)c3cc(NC(=O)c4nc(NC(=O)CCNC(=O)c5cc(NC(=O)c6nccn6C)cn5C)cn4C)cn3C)cn1C)c1nnc(C)n1-2` [Compound 130], the EC50 was below 100 nM. In the case of `Cc1sc2c(c1C)C(c1ccc(Cl)cc1)=N[C@@H](CC(=O)NC1CCN(CCOCCOCCOCCOCCC(=O)NC3(C(=O)NCCOCCOCCOCCNC(=O)CCNC(=O)c4nc(NC(=O)CCNC(=O)c5cc(NC(=O)c6nc(NC(=O)CCNC(=O)c7cc(NC(=O)c8nccn8C)cn7C)cn6C)cn5C)cn4C)CCNCC3)CC1)c1nnc(C)n1-2` [Compound 70], the EC50 lay in the range of 100 to 500 nM. The same measure, in the same setting: under `COCCOCCOCCOCCOCCOCCOCCOCCOCCOCCOCCOCCOCCOCCOCCOCCC(=O)N(CC#CC#Cc1ccc(NC(=O)C[C@@H]2N=C(c3ccc(Cl)cc3)c3c(sc(C)c3C)-n3c(C)nnc32)cc1)CCOCCOCCOCCOCCOCCNC(=O)CCNC(=O)c1nc(NC(=O)CCNC(=O)c2cc(NC(=O)c3nc(NC(=O)CCNC(=O)c4cc(NC(=O)c5nccn5C)cn4C)cn3C)cn2C)cn1C` [Compound 58] stands 100 to 500 nM; under `Cc1sc2c(c1C)C(c1ccc(Cl)cc1)=N[C@@H](CC(=O)Nc1ccc(C#CC#CCN(CCOCCOCCOCCOCCOCCN)CCOCCOCCOCCOCCOCCNC(=O)CCNC(=O)c3nc(NC(=O)CCNC(=O)c4cc(NC(=O)c5nc(NC(=O)CCNC(=O)c6cc(NC(=O)c7nccn7C)cn6C)cn5C)cn4C)cn3C)cc1)c1nnc(C)n1-2` [Compound 104], 100 to 500 nM.

Regarding `Cc1sc2c(c1C)C(c1ccc(Cl)cc1)=N[C@@H](CC(=O)NC1CCN(C(C)(C)C#CC#CCNCCOCCOCCOCCOCCOCCNC(=O)CCNC(=O)c3nc(NC(=O)CCNC(=O)c4cc(NC(=O)c5nc(NC(=O)CCNC(=O)c6cc(NC(=O)c7nccn7C)cn6C)cn5C)cn4C)cn3C)CC1)c1nnc(C)n1-2` [Compound 159], the half-maximal effective concentration (EC50) is below 100 nM. Same read-out and setting: to `CC(=O)Nc1c(F)cc(C(=O)NC2CCN(CCOCCOCCOCCOCCOCCOCCOCCOCCNC(=O)CCNC(=O)c3nc(NC(=O)CCNC(=O)c4cc(NC(=O)c5nc(NC(=O)CCNC(=O)c6cc(NC(=O)c7nccn7C)cn6C)cn5C)cn4C)cn3C)CC2)cc1O[C@@H](C)c1ccccc1` [Compound 48] belongs above 500 nM. With `Cc1sc2c(c1C)C(c1ccc(Cl)cc1)=N[C@@H](CC(=O)N1CCC(C#CC#CCN(CCOCCOCCOCCOCCOCCNC(=O)CCNC(=O)c3nc(NC(=O)CCNC(=O)c4cc(NC(=O)c5nc(NC(=O)CCNC(=O)c6cc(NC(=O)c7nccn7C)cn6C)cn5C)cn4C)cn3C)CC(O)COCC(O)CO)CC1)c1nnc(C)n1-2` (stereo partly drawn) [Compound 122], the EC50 fell in the range of 100 to 500 nM. Same read-out and setting: under `COCCOCCOCCOCCOCCOCCOCCOCCOCCOCCOCCC(=O)Nc1ccc(C2=N[C@@H](CC(=O)N3CCC(C#CC#CC4CCN(CCOCCOCCOCCOCCNC(=O)CCNC(=O)c5nc(NC(=O)CCNC(=O)c6cc(NC(=O)c7nc(NC(=O)CCNC(=O)c8cc(NC(=O)c9nccn9C)cn8C)cn7C)cn6C)cn5C)CC4)CC3)c3nnc(C)n3-c3sc(C)c(C)c32)cc1` [Compound 120] stands 100 to 500 nM; under `Cc1sc2c(c1C)C(c1ccc(Cl)cc1)=N[C@@H](CC(=O)Nc1ccc(N3CCC(N4CCN(CCOCCOCCOCCOCCOCCOCCNC(=O)CCNC(=O)c5nc(NC(=O)CCNC(=O)c6cc(NC(=O)c7nc(NC(=O)CCNC(=O)c8cc(NC(=O)c9nccn9C)cn8C)cn7C)cn6C)cn5C)CC4)CC3)cc1)c1nnc(C)n1-2` [Compound 8], below 100 nM; under `Cc1sc2c(c1C)C(c1ccc(Cl)cc1)=N[C@@H](CC(=O)Nc1ccc(C#CC#CCNCCOCCOCCOCCOCCNC(=O)CCNC(=O)c3nc(NC(=O)CCNC(=O)c4cc(NC(=O)c5nc(NC(=O)CCNC(=O)c6cc(NC(=O)c7nccn7C)cn6C)cn5C)cn4C)cn3C)cc1)c1nnc(C)n1-2` [Compound 16], below 100 nM. The same measure, in the same setting: under `COCCOCCOCCOCCOCCOCCOc1cc(NC(=O)C[C@@H]2N=C(c3ccc(Cl)cc3)c3c(sc(C)c3C)-n3c(C)nnc32)ccc1OCCOCCOCCOCCOCCOCCOCCOCCOCCNC(=O)CCNC(=O)c1nc(NC(=O)CCNC(=O)c2cc(NC(=O)c3nc(NC(=O)CCNC(=O)c4cc(NC(=O)c5nccn5C)cn4C)cn3C)cn2C)cn1C` [Compound 211] stands 100 to 500 nM; under `Cc1sc2c(c1C)C(c1ccc(Cl)cc1)=N[C@@H](CC(=O)Nc1ccc(N3CCN(CCOCCOCCOCCOCCOCCNC(=O)CCNC(=O)c4nc(NC(=O)CCNC(=O)c5cc(NC(=O)c6nc(NC(=O)CCNC(=O)c7cc(NC(=O)c8nccn8C)cn7C)cn6C)cn5C)cn4C)CC3)cc1)c1nnc(C)n1-2` [Compound 4], below 100 nM; under `Cc1sc2c(c1C)C(c1ccc(Cl)cc1)=N[C@@H](CC(=O)Nc1ccc(N3CCN(CCOCCOCCOCCOCCOCCOCCOCCNC(=O)CCNC(=O)c4nc(NC(=O)CCNC(=O)c5cc(NC(=O)c6nc(NC(=O)CCNC(=O)c7cc(NC(=O)c8nccn8C)cn7C)cn6C)cn5C)cn4C)CC3)cc1)c1nnc(C)n1-2` [Compound 2], below 100 nM. Still for that read-out and setting: under `Cc1cc(F)cc(C)c1Oc1ccc(C(C)(C)O)cc1-c1cn(C)c(=O)c2[nH]c(C(=O)N3CCN(CC4CCN(CCOCCOCCOCCOCCOCCOCCNC(=O)CCNC(=O)c5nc(NC(=O)CCNC(=O)c6cc(NC(=O)c7nc(NC(=O)CCNC(=O)c8cc(NC(=O)c9nccn9C)cn8C)cn7C)cn6C)cn5C)CC4)CC3)cc12` [Compound 167] stands above 500 nM. As for `CC(=O)N1c2ccc(-c3ccc(C(=O)N4CCC(C#CC#CC5CCN(CCOCCOCCOCCOCCOCCOCCNC(=O)CCNC(=O)c6nc(NC(=O)CCNC(=O)c7cc(NC(=O)c8nc(NC(=O)CCNC(=O)c9cc(NC(=O)c%10nccn%10C)cn9C)cn8C)cn7C)cn6C)CC5)CC4)cc3)cc2C(Nc2ccc(Cl)cc2)C[C@@H]1C` (stereo partly drawn) [Compound 150], the EC50 was below 100 nM. For the compound `Cc1sc2c(c1C)C(c1ccc(Cl)cc1)=N[C@@H](CC(=O)NC1CCN(C3CCN(CCOCCOCCOCCOCCOCCOCCOCCNC(=O)CCNC(=O)c4nc(NC(=O)CCNC(=O)C5=CC(NC(=O)c6nc(NC(=O)CCNC(=O)c7cc(NC(=O)c8nccn8C)cn7C)cn6C)CN5C)cn4C)CC3)CC1)c1nnc(C)n1-2` (stereo partly drawn) [Compound 90], the EC50 lay in the range of 100 to 500 nM. On the same count and under the same terms, under `Cc1sc2c(c1C)C(c1ccc(Cl)cc1)=N[C@@H](CC(=O)N1CCC(C#CC#CC3CCN(CCOCCOCCOCCOCCOCCOCCNC(=O)CCNC(=O)c4nc(NC(=O)CCNC(=O)c5cc(NC(=O)c6nc(NC(=O)CCNC(=O)c7cc(NC(=O)c8nccn8C)cn7C)cn6C)cn5C)cn4C)CC3)CC1)c1nnc(C)n1-2` [Compound 141] stands below 100 nM.
